Data reported in patent US20250302832A1, “PYRAZINE DERIVATIVES AND USES THEREOF” (FOGHORN THERAPEUTICS INC., priority 2022, published 2025).

Key:
[1] = molecular target: T1, HiBit-BRG1 fusion protein (Homo sapiens, UniProt P51532); test: HiBiT-BRG1 cell-based degradation assay (Nano-Glo HiBiT lytic detection, 24 h); conditions: HeLa cell line expressing HiBit-BRG1 and LgBit; for Dmax: read-out: BRG1 HiBit Degradation Maximum (%); for DC50: read-out: BRMG1 HiBit Degradation IC50
T1 construct: expressed in transfected cells
T1 sequence (P51532 whole entry, the tested form may be a part): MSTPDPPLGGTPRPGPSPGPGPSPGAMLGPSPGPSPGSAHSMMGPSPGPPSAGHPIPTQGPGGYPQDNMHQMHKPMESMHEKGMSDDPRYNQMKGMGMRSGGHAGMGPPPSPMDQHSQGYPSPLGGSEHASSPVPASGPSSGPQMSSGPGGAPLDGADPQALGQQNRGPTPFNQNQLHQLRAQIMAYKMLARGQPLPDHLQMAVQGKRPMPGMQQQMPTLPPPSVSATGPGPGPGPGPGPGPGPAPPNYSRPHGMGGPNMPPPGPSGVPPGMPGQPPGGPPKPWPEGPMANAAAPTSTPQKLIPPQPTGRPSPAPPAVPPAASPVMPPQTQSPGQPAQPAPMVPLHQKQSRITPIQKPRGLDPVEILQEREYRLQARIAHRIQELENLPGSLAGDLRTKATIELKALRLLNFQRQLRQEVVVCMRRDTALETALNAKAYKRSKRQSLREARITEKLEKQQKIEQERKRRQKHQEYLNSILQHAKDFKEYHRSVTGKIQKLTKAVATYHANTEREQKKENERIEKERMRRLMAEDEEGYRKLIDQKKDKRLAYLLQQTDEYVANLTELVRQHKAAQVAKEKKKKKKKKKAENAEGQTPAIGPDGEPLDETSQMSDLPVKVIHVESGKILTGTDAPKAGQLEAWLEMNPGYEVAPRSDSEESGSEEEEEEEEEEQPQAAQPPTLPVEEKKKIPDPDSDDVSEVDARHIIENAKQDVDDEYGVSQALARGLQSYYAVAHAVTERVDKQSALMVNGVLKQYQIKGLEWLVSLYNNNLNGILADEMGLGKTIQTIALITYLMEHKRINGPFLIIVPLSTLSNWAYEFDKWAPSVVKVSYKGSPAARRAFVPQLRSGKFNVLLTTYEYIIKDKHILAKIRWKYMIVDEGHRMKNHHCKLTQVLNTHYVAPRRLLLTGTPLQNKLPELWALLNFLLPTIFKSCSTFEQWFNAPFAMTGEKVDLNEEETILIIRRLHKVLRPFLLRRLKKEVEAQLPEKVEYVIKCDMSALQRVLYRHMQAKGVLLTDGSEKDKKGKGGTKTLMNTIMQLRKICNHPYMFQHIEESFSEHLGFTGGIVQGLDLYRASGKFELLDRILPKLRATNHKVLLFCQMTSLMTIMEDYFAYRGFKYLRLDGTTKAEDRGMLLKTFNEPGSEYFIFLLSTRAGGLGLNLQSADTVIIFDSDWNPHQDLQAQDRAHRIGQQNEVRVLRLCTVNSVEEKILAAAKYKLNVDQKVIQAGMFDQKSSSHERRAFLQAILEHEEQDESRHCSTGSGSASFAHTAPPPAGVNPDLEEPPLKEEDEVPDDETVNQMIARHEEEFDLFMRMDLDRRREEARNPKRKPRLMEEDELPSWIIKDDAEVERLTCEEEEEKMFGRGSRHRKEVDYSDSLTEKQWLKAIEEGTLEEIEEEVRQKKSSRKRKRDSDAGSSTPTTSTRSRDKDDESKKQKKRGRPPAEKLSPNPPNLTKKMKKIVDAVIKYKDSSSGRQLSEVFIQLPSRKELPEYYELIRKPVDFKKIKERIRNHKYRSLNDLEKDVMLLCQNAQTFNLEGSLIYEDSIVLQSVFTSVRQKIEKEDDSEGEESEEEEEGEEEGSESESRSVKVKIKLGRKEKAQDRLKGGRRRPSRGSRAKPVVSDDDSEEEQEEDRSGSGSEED
Method: Procedure: A stable HeLa cell line expressing HiBiT-BRM was generated. On day 0, 5000 cells were seeded in 40 μL of media into each well of 384-well cell culture plates. […] Subsequently plates were incubated for 24 h in a standard tissue culture incubator and equilibrated at room temperature for 15 minutes. Nano-GB HiBiT Lytic Detection System (Promega N3050) reagent was freshly prepared and 20 ul was added to each well. Upon addition of this LgBit-containing reagent, the HiBiT and LgBiT proteins associate to form the luminescent NanoBiT luciferase. The plates were shaken for 10 minutes at room temperature and the bioluminescence read using an EnVision plate reader (PerkinElmer).
For measurement of BRG1 degradation, a stable HeLa cell line expressing HiBit-BRG1 and LgBit was generated. The same protocol as above was then followed.
(§1) The degradation % was calculated using the following formula: % degradation=100%−100%×(Lumsample−LuMLC)/(LuMHC−LuMLC). DMSO treated cells are employed as High Control (HC) and 2 μM of a known BRM/BRG1 degrader standard treated cells are employed as Low Control (LC).

HiBit-BRM fusion protein = molecular target: T2, HiBit-BRM fusion protein (Homo sapiens, UniProt P51531); test: HiBiT-BRM cell-based degradation assay (Nano-Glo HiBiT lytic detection, 24 h); conditions: HeLa cell line expressing HiBiT-BRM; for DC50: read-out: BRM HiBit Degradation IC50
T2 construct: expressed in transfected cells
T2 sequence (P51531 whole entry, the tested form may be a part): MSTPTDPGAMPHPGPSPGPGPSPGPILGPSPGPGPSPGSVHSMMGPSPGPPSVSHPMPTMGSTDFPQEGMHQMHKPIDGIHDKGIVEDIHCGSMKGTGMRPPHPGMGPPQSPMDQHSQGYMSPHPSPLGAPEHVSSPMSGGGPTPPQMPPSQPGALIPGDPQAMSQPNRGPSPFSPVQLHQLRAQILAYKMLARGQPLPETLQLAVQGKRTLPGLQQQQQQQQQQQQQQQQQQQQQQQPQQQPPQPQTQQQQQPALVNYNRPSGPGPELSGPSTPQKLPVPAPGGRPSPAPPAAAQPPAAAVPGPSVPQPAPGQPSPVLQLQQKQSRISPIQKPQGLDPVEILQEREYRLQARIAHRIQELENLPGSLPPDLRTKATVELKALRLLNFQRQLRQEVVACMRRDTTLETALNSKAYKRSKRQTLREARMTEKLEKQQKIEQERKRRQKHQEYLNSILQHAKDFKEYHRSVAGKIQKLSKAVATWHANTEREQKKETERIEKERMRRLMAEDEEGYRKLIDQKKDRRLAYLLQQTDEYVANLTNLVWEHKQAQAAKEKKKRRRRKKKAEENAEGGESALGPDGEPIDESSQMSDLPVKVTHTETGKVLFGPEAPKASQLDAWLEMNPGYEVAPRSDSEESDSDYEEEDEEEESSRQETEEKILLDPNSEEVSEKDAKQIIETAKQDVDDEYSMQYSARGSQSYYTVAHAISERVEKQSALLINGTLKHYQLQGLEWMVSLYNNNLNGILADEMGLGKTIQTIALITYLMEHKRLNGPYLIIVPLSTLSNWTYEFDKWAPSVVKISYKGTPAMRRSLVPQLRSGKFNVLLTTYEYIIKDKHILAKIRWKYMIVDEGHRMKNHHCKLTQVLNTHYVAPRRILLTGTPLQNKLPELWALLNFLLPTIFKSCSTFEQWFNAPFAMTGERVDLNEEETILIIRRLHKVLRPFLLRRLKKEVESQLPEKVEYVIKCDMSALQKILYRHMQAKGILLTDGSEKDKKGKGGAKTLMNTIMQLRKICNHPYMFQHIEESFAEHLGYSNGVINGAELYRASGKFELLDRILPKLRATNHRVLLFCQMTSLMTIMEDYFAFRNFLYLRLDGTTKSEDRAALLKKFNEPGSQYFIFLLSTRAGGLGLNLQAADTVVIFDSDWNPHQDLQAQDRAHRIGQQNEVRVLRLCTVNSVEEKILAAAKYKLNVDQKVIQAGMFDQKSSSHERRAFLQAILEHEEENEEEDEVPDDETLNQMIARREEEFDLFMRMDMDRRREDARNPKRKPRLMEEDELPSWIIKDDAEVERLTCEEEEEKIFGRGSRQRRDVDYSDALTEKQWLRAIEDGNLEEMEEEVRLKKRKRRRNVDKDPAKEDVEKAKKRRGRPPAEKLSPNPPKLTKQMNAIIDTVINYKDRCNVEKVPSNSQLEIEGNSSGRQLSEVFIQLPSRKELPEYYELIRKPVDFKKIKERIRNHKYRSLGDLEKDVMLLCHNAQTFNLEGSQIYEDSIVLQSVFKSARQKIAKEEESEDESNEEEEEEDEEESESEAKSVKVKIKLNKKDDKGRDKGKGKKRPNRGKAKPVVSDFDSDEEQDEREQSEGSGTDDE
Method: Procedure: A stable HeLa cell line expressing HiBiT-BRM was generated. On day 0, 5000 cells were seeded in 40 μL of media into each well of 384-well cell culture plates. On day 1, cells were treated with 120 nL DMSO or 120 nL of 3-fold serially DMSO-diluted compounds (10 points in duplicate with 30 μM as final top dose). Subsequently plates were incubated for 24 h in a standard tissue culture incubator and equilibrated at room temperature for 15 minutes. Nano-GB HiBiT Lytic Detection System (Promega N3050) reagent was freshly prepared and 20 ul was added to each well. Upon addition of this LgBit-containing reagent, the HiBiT and LgBiT proteins associate to form the luminescent NanoBiT luciferase. The plates were shaken for 10 minutes at room temperature and the bioluminescence read using an EnVision plate reader (PerkinElmer).
as §1

| Dmax [1] | DC50 [1] | DC50 (HiBit-BRM fusion protein) | SMILES | BRM HiBit Degradation Maximum (%) (HiBit-BRM fusion protein) |
| --- | --- | --- | --- | --- |
| > 50% | > 0.01 µM | < 0.01 µM | CCn1c(C2CCN(c3ncc(-c4cc([C@H](C(=O)N5C[C@H](O)C[C@H]5C(=O)N[C@@H](C)c5ccc(-c6scnc6C)cc5)C(C)C)on4)cn3)CC2)cc2nnc(-c3ccccc3O)cc21 [Compound 23, (2S,4R)-1-[(2R)-2-[3-(2-{4-[5-ethyl-3-(2-hydroxyphenyl)pyrrolo[3,2-c]pyridazin-6-yl]piperidin-1-yl}pyrimidin-5-yl)-1,2-oxazol-5-yl]-3-methylbutanoyl]-4-hydroxy-N-[(1S)-1-[4-(4-methyl-1,3-thiazol-5-yl)phenyl]ethyl]pyrrolidine-2-carboxamide] | A (“A” indicates maximum degradation ≥75%) |
| < 50% |  | > 0.01 µM | CCn1c(C2CCN(c3ncc(-c4cc([C@@H](C(=O)N5C[C@H](O)C[C@H]5C(=O)N[C@@H](C)c5ccc(-c6scnc6C)cc5)C(C)C)on4)cn3)CC2)cc2nnc(-c3ccccc3O)cc21 [Compound 24, (2S,4R)-1-[(2S)-2-[3-(2-{4-[5-ethyl-3-(2-hydroxyphenyl)pyrrolo[3,2-c]pyridazin-6-yl]piperidin-1-yl}pyrimidin-5-yl)-1,2-oxazol-5-yl]-3-methylbutanoyl]-4-hydroxy-N-[(1S)-1-[4-(4-methyl-1,3-thiazol-5-yl)phenyl]ethyl]pyrrolidine-2-carboxamide] | B (“B” indicates maximum degradation ≥50%) |
| < 50% |  | < 0.01 µM | Cc1ncsc1-c1ccc([C@H](C)NC(=O)[C@@H]2C[C@@H](O)CN2C(=O)[C@@H](c2cc(-c3cnc(N4CCC(c5cc6nnc(-c7ccccc7O)cc6n5C5CC5)CC4)nc3)no2)C(C)C)cc1 [Compound 25, (2S,4R)-1-[(2R)-2-[3-(2-{4-[5-cyclopropyl-3-(2-hydroxyphenyl)pyrrolo[3,2-c]pyridazin-6-yl]piperidin-1-yl}pyrimidin-5-yl)-1,2-oxazol-5-yl]-3-methylbutanoyl]-4-hydroxy-N-[(1S)-1-[4-(4-methyl-1,3-thiazol-5-yl)phenyl]ethyl]pyrrolidine-2-carboxamide] | A (“A” indicates maximum degradation ≥75%) |
| < 50% |  |  | Cc1ncsc1-c1ccc([C@H](C)NC(=O)[C@@H]2C[C@@H](O)CN2C(=O)[C@H](c2cc(-c3cnc(N4CCC(c5cc6nnc(-c7ccccc7O)cc6n5C5CC5)CC4)nc3)no2)C(C)C)cc1 [Compound 26, (2S,4R)-1-[(2S)-2-[3-(2-{4-[5-cyclopropyl-3-(2-hydroxyphenyl)pyrrolo[3,2-c]pyridazin-6-yl]piperidin-1-yl}pyrimidin-5-yl)-1,2-oxazol-5-yl]-3-methylbutanoyl]-4-hydroxy-N-[(1S)-1-[4-(4-methyl-1,3-thiazol-5-yl)phenyl]ethyl]pyrrolidine-2-carboxamide] | C (“C” indicates maximum degradation <50%) |
| > 75% | > 0.01 µM | < 0.01 µM | Cc1ncsc1-c1ccc([C@H](C)NC(=O)[C@@H]2C[C@@H](O)CN2C(=O)[C@@H](c2cc(OCCN3CCN(c4cc5nnc(-c6ccccc6O)cc5n4C)CC3)no2)C(C)C)cc1 [Compound 27, (2S,4R)-4-hydroxy-1-[(2R)-2-[3-(2-{4-[3-(2-hydroxyphenyl)-5-methylpyrrolo[3,2-c]pyridazin-6-yl]piperazin-1-yl}ethoxy)-1,2-oxazol-5-yl]-3-methylbutanoyl]-N-[(1S)-1-[4-(4-methyl-1,3-thiazol-5-yl)phenyl]ethyl]pyrrolidine-2-carboxamide] | A (“A” indicates maximum degradation ≥75%) |
| > 75% | < 0.01 µM | < 0.01 µM | Cc1ncsc1-c1ccc([C@H](C)NC(=O)[C@@H]2C[C@@H](O)CN2C(=O)[C@@H](c2cc(-c3cnc(N4CCN(c5cc6nnc(-c7ccccc7O)cc6n5C)CC4)nc3)no2)C(C)C)cc1 [Compound 28, (2S,4R)-4-hydroxy-1-[(2R)-2-[3-(2-{4-[3-(2-hydroxyphenyl)-5-methylpyrrolo[3,2-c]pyridazin-6-yl]piperazin-1-yl}pyrimidin-5-yl)-1,2-oxazol-5-yl]-3-methylbutanoyl]-N-[(1S)-1-[4-(4-methyl-1,3-thiazol-5-yl)phenyl]ethyl]pyrrolidine-2-carboxamide] | A (“A” indicates maximum degradation ≥75%) |
| < 50% |  | > 0.01 µM | Cc1ncsc1-c1ccc([C@H](C)NC(=O)[C@@H]2C[C@@H](O)CN2C(=O)[C@H](c2cc(-c3cnc(N4CCN(c5cc6nnc(-c7ccccc7O)cc6n5C)CC4)nc3)no2)C(C)C)cc1 [Compound 29, (2S,4R)-4-hydroxy-1-[(2S)-2-[3-(2-{4-[3-(2-hydroxyphenyl)-5-methylpyrrolo[3,2-c]pyridazin-6-yl]piperazin-1-yl}pyrimidin-5-yl)-1,2-oxazol-5-yl]-3-methylbutanoyl]-N-[(1S)-1-[4-(4-methyl-1,3-thiazol-5-yl)phenyl]ethyl]pyrrolidine-2-carboxamide] | A (“A” indicates maximum degradation ≥75%) |
| < 50% |  | > 0.01 µM | Cc1ncsc1-c1ccc([C@H](C)NC(=O)[C@@H]2C[C@@H](O)CN2C(=O)[C@@H](c2cc(OCCN3CC(n4ccc5nnc(-c6ccccc6O)cc54)C3)no2)C(C)C)cc1 [Compound 31, (2S,4R)-4-hydroxy-1-[(2R)-2-[3-(2-{3-[3-(2-hydroxyphenyl)pyrrolo[3,2-c]pyridazin-5-yl]azetidin-1-yl}ethoxy)-1,2-oxazol-5-yl]-3-methylbutanoyl]-N-[(1S)-1-[4-(4-methyl-1,3-thiazol-5-yl)phenyl]ethyl]pyrrolidine-2-carboxamide] | B (“B” indicates maximum degradation ≥50%) |
| < 50% |  |  | Cc1ncsc1-c1ccc([C@H](C)NC(=O)[C@@H]2C[C@@H](O)CN2C(=O)[C@@H](c2cc(OCCN3CC(n4cc(C(F)F)c5nnc(-c6ccccc6O)cc54)C3)no2)C(C)C)cc1 [Compound 32, (2S,4R)-1-((R)-2-(3-(2-(3-(7-(difluoromethyl)-3-(2-hydroxyphenyl)-5H-pyrrolo[3,2-c]pyridazin-5-yl)azetidin-1-yl)ethoxy)isoxazol-5-yl)-3-methylbutanoyl)-4-hydroxy-N—((S)-1-(4-(4-methylthiazol-5-yl)phenyl)ethyl)pyrrolidine-2-carboxamide] | C (“C” indicates maximum degradation <50%) |

| SMILES | Dmax [1] | DC50 [1] | DC50 (HiBit-BRM fusion protein) | BRM HiBit Degradation Maximum (%) (HiBit-BRM fusion protein) |
| --- | --- | --- | --- | --- |
| Cc1ncsc1-c1ccc([C@H](C)NC(=O)[C@@H]2C[C@@H](O)CN2C(=O)[C@@H](c2cc(OCCN3CCC(O)(c4cc5nnc(-c6ccccc6O)cc5n4C)CC3)no2)C(C)C)cc1 [Compound 30, (2S,4R)-4-hydroxy-1-[(2R)-2-[3-(2-{4-hydroxy-4-[3-(2-hydroxyphenyl)-5-methylpyrrolo[3,2-c]pyridazin-6-yl]piperidin-1-yl}ethoxy)-1,2-oxazol-5-yl]-3-methylbutanoyl]-N-[(1S)-1-[4-(4-methyl-1,3-thiazol-5-yl)phenyl]ethyl]pyrrolidine-2-carboxamide] | > 75% | > 0.1 µM | > 0.01 µM | A (“A” indicates maximum degradation ≥75%) |
